Laboratory results published in ChEMBL document CHEMBL4811290, “Exploiting the hydrophobic channel of the NNIBP: Discovery of novel diarylpyrimidines as HIV-1 NNRTIs against wild-type and K103N mutant viruses” (Bioorg Med Chem, 2021).
Values after ≈ are worked out from the molar mass of the structure shown. Active and inactive are the calls of the source. The rule behind the calls is not given here.

Columns and labels:
[1] = Cytotoxicity against mock-infected human MT4 cells incubated for 5 days by MTT assay; type: cell-based; details: time 5 day
[2] = tested on: Human immunodeficiency virus 1; assay: Antiviral activity against HIV1 harboring RT F227L/V106A mutant infected in human MT4 cells assessed as inhibition of virus-induced cytopathic effect incubated for 5 days by MTT assay; type: functional, organism-based; details: Human immunodeficiency virus 1, MT4, 120 h
[3] = tested on: Human immunodeficiency virus 1; assay: Antiviral activity against HIV1 harboring RT L100I mutant infected in human MT4 cells assessed as inhibition of virus-induced cytopathic effect incubated for 5 days by MTT assay; type: functional, organism-based; details: Human immunodeficiency virus 1, MT4, 120 h
[4] = Water solubility of compound at pH 2; type: physicochemical
[5] = tested on: MT4; assay: Antiviral activity against wild type HIV-2 ROD infected in human MT4 cells assessed as inhibition of virus-induced cytopathic effect measured after 5 days by MTT assay; type: functional, cell-based; details: Human immunodeficiency virus 2, ISOLATE ROD, time 5.0 day
[6] = target: Human immunodeficiency virus type 1 reverse transcriptase (Human immunodeficiency virus 1, UniProt Q72547); assay: Inhibition of HIV-1 reverse transcriptase assessed as inhibition of biotin-dUTP incorporation into cDNA measured after 1 hr by ELISA
[7] = tested on: Human immunodeficiency virus 1; assay: Antiviral activity against HIV1 harboring RT RES056 mutant infected in human MT4 cells assessed as inhibition of virus-induced cytopathic effect incubated for 5 days by MTT assay; type: functional, organism-based; details: Human immunodeficiency virus 1, MT4, 120 h
[8] = tested on: Human immunodeficiency virus 1; assay: Antiviral activity against HIV1 harboring RT Y188L mutant infected in human MT4 cells assessed as inhibition of virus-induced cytopathic effect incubated for 5 days by MTT assay; type: functional, organism-based; details: Human immunodeficiency virus 1, MT4, 120 h
[9] = Selectivity index, ratio of CC50 for human MT4 cells to EC50 for Antiviral activity against HIV-1 IIIB infected in human MT4 cells; type: toxicity, cell-based; details: read-out: Selectivity Index
[10] = Water solubility of compound at pH 7.4; type: physicochemical
[11] = tested on: Human immunodeficiency virus 1; assay: Antiviral activity against HIV1 harboring RT Y181C mutant infected in human MT4 cells assessed as inhibition of virus-induced cytopathic effect incubated for 5 days by MTT assay; type: functional, organism-based; details: Human immunodeficiency virus 1, MT4, 120 h
[12] = tested on: Human immunodeficiency virus 1; assay: Antiviral activity against wild type HIV-1 IIIB infected in human MT4 cells assessed as inhibition of virus-induced cytopathic effect measured after 5 days by MTT assay; type: functional, organism-based; details: Human immunodeficiency virus 1, IIIB, MT4, 120 h
[13] = Water solubility of compound at pH 7; type: physicochemical
[14] = tested on: Human immunodeficiency virus 1; assay: Antiviral activity against HIV1 harboring K103N mutant infected in human MT4 cells assessed as inhibition of virus-induced cytopathic effect incubated for 5 days by MTT assay; type: functional, organism-based; details: Human immunodeficiency virus 1, MT4, 120 h
[15] = tested on: Human immunodeficiency virus 1; assay: Antiviral activity against HIV1 harboring RT E138K mutant infected in human MT4 cells assessed as inhibition of virus-induced cytopathic effect incubated for 5 days by MTT assay; type: functional, organism-based; details: Human immunodeficiency virus 1, MT4, 120 h

SMILES | CC50 at 120 h [1] [nM] | EC50 [2] [nM] | EC50 [3] [nM] | solubility [4] [µg/mL] | Activity [5] | IC50 [6] [nM] | EC50 [7] [nM] | EC50 [8] [nM] | selectivity ratio [9] | solubility [10] [µg/mL] | EC50 [11] [nM] | EC50 [12] [nM] | solubility [13] [µg/mL] | EC50 [14] [nM] | EC50 [15] [nM]
CCC(=O)N1CCC(=CC#Cc2cc(C)c(Oc3ccnc(Nc4ccc(C#N)cc4)n3)c(C)c2)CC1 | 4420 | 1300 | 253 | 64.7 (≈ 132 µM) | inactive | 2980 | > 4420 | 382 | 201 | 66.5 (≈ 135 µM) | 772 | 22 | 62.2 (≈ 127 µM) | 57 | 171
Cc1cc(C#N)cc(C)c1Oc1nc(Nc2ccc(C#N)cc2)nc(N)c1Br [ETRAVIRINE] | > 4610 | 20 | 8 | < 1 | inactive |  | 67 | 21 |  |  | 20 |  |  |  | 19
Nc1ccn([C@H]2CS[C@@H](CO)O2)c(=O)n1 | > 87200 | 2170 | 1150 |  | inactive |  | 5060 | 4560 | > 309 |  | 3400 | 5230 |  | 2790 | 8270
O=C1Nc2ccc(Cl)cc2[C@@](C#CC2CC2)(C(F)(F)F)O1 [EFAVIRENZ] | > 6350 |  | 37 |  | inactive |  | 332 | 212 |  |  | 6 |  |  | 103 | 7
Cc1cc(C#CC=C2CCN(S(=O)(=O)C3CC3)CC2)cc(C)c1Oc1ccnc(Nc2ccc(C#N)cc2)n1 | 4660 | > 4660 | > 4660 |  | inactive |  | > 4660 | 1410 | 47 |  | > 4660 | 98 |  | 284 | 685
Cc1cc(C#CC=C2CCN(Cc3cccc([N+](=O)[O-])c3)CC2)cc(C)c1Oc1ccnc(Nc2ccc(C#N)cc2)n1 | 74600 | 26700 | 2770 |  | inactive |  | > 74600 | 5330 | 399 |  | 5550 | 187 |  | 510 | 2150
Cc1ccnc2c1NC(=O)c1cccnc1N2C1CC1 [NEVIRAPINE] | > 15000 | > 15000 | 2520 |  | inactive |  | > 15000 | > 15000 | > 94 |  | 10500 | 160 |  | 6550 | 258
Cc1cn([C@H]2C[C@H](N=[N+]=[N-])[C@@H](CO)O2)c(=O)[nH]c1=O [ZIDOVUDINE] | > 7480 | 10 | 9 |  | inactive |  | 24 | 12 | > 352 |  | 15 | 21 |  | 22 | 35
Cc1cc(C#CC=C2CCN(S(=O)(=O)C(C)C)CC2)cc(C)c1Oc1ccnc(Nc2ccc(C#N)cc2)n1 | 4580 | > 4580 | > 4580 |  | inactive |  | > 4580 | > 4580 | 27 |  | > 4580 | 171 |  | 573 | 918
COC(=O)c1ccc(CN2CCC(=CC#Cc3cc(C)c(Oc4ccnc(Nc5ccc(C#N)cc5)n4)c(C)c3)CC2)cc1 | 33600 | > 33600 | > 33600 |  | inactive |  | > 33600 | > 33600 | 51 |  | > 33600 | 656 |  | 782 | 5460
Cc1cc(C#CC=C2CCN(Cc3ccccc3C#N)CC2)cc(C)c1Oc1ccnc(Nc2ccc(C#N)cc2)n1 | > 227000 | > 42400 | 8540 |  | inactive |  | > 227000 | 16100 | > 604 |  | 20400 | 376 |  | 1010 | 5460
CCS(=O)(=O)N1CCC(=CC#Cc2cc(C)c(Oc3ccnc(Nc4ccc(C#N)cc4)n3)c(C)c2)CC1 | 4960 | > 4960 | 1080 |  | inactive |  | > 4960 | 1280 | 62 |  | > 1350 | 79 |  | 165 | 493
Cc1cc(C#CC=C2CCN(C(=O)N(C)C)CC2)cc(C)c1Oc1ccnc(Nc2ccc(C#N)cc2)n1 | 4430 | > 4430 | 617 |  | inactive |  | > 4430 | 521 | 125 |  | 799 | 35 |  | 86 | 265
C=CC(=O)N1CCC(=CC#Cc2cc(C)c(Oc3ccnc(Nc4ccc(C#N)cc4)n3)c(C)c2)CC1 | 4100 | > 4100 | 345 |  | inactive |  | > 4100 | 409 | 116 |  | 1100 | 35 |  | 46 | 240
Cc1cc(C#CC=C2CCN(Cc3ccccn3)CC2)cc(C)c1Oc1ccnc(Nc2ccc(C#N)cc2)n1 | 5580 | > 5580 | > 5580 |  | inactive |  | > 5580 | 1030 | 75 |  | 4250 | 74 |  | 200 | 805
Cc1cc(C#CC=C2CCN(S(C)(=O)=O)CC2)cc(C)c1Oc1ccnc(Nc2ccc(C#N)cc2)n1 | 5490 | > 5490 | 282 | 20.4 (≈ 39.7 µM) | inactive | 1980 | > 5490 | 452 | 186 | 26.6 (≈ 51.8 µM) | 913 | 29 | 27.1 (≈ 52.8 µM) | 57 | 170
Cc1cc(C#CC=C2CCN(C(=O)OC(C)(C)C)CC2)cc(C)c1Oc1ccnc(Nc2ccc(C#N)cc2)n1 | 16700 | > 56700 | 984 |  | inactive |  | > 56700 | 5560 | 26 |  | > 56700 | 643 |  | > 56700 | > 56700
Cc1cc(C#CC=C2CCN(S(=O)(=O)N(C)C)CC2)cc(C)c1Oc1ccnc(Nc2ccc(C#N)cc2)n1 | 4790 | > 4790 | > 4790 |  | inactive |  | > 4790 | > 4790 | 42 |  | > 4790 | 114 |  | 209 | 750
CCOC(=O)CN1CCC(=CC#Cc2cc(C)c(Oc3ccnc(Nc4ccc(C#N)cc4)n3)c(C)c2)CC1 | 201000 | > 201000 | > 201000 |  | inactive |  | > 201000 | > 201000 | 29 |  | > 201000 | 7050 |  | 39000 | > 201000
Cc1cc(C#CC=C2CCNCC2)cc(C)c1Oc1ccnc(Nc2ccc(C#N)cc2)n1 | 4810 | 1270 | 231 | 47.3 (≈ 109 µM) | inactive | 130 | 1460 | 211 | 294 | 67 (≈ 154 µM) | 281 | 16 | 60.5 (≈ 139 µM) | 39 | 204
